Laboratory results from US6379670B1, “Methods for treatment of multiple sclerosis using peptide analogs of human myelin basic protein” (Neurocrine Biosciences, Inc., priority 1994, dated 2002).
Entries after “also recorded” stand apart in the source; their conditions may differ. Non-standard residues stand in square brackets, D forms with d. No end group written: not given here.

Columns and labels:
[1] = tested on: peripheral blood T cells of MS patients; test: Frequency of antigen-reactive peripheral blood T cells after NBI-5788 treatment of MS patients (split-well); type: in vivo, human
Experimental: MS patients studied were those participating in phase I clinical trials using NBI-5788 administered subcutaneously (5, 10 or 20 mg) weekly for four weeks. Patients had MRI evaluations performed at baseline and at 6 and 12 weeks. All but 1 patient had secondary or primary progressive disease (SP or PP, respectively). For patients in group A, immunologic evaluations involving use of NBI-5788 as antigen could be performed only 9 months after completion of the treatment phase of the study. For patients in group B, immunologic evaluation was performed just prior to entry into the study (pre-treatment) and after 3 months following completion of the 1 month treatment phase. Two additional patients with SP MS, one with relapsing remitting (RR) MS and 3 normal controls were also studied.
(§1) Immune response to the peptide analog was assessed by measuring the frequency of proliferating peripheral blood T cells using a split-well microtiter method (i.e., number of positive wells {Δ cpm >1000, stimulation index>3} divided by the total number of wells assayed). Peripheral blood mononuclear cells (PBMC) were isolated from venous blood by Ficoll-Hypaque density gradient centrifugation, washed twice and resuspended in complete tissue culture medium (Iscove's modification of Dulbecco's medium containing 10% heat-inactivated, pooled, human A-B serum, 2 mM L-glutamine, 100 U/ml penicillin/streptomycin and 50 μg/ml gentamycin). PBMC from each patient were seeded at 10^5/well in 96 well, U-bottom microtiter plates containing 25 μg/ml whole MBP, 10 μg/ml NBI-5788 or medium alone in a volume of 200 μl. Three days later supernatants were collected and frozen at −80° C. and fresh medium containing IL-2 (10 U/ml) was added. IL-2-containg medium was refreshed on Day 7 and Day 11. On Day 14, the frequency of antigen response was determined by the “split well” technique. Briefly, cells from one primary well were split into replicate experimental wells in the presence of 10^5 freshly isolated autologous, irradiated peripheral blood mononuclear cells (APCs): one containing the original antigen (25 μg/ml) and one without antigen. Two days later supernatants were collected and the wells pulsed with 1 µCi/well [^3H]-thymidine ([…]) for the final 18 hours of culture. ^3H-Thymidine uptake was measured in a beta counter. […] The association between T cell frequency and NBI-5788 treatment was evaluated by χ^2 contingency analysis.

[2] = tested on: peripheral blood mononuclear cells; test: Frequency of antigen-reactive T cells in PBMC of untreated MS patients and healthy donors (split-well); type: cell-based, human; parameters: mean frequency of antigen-reactive T cells / frequency of antigen-reactive T cells in healthy subjects / antigen-reactive T cells, % Positive: concentration or dose not given beside the values
Experimental: as §1

[3] = subject MS-2, untreated MS patient
[4] = subject MS-3, untreated MS patient
[5] = subject MS-7, untreated MS patient
[6] = subject MS-8, untreated MS patient
[7] = subject MS-9, untreated MS patient
[8] = subject MS-10, untreated MS patient
[9] = subject MS-11, untreated MS patient

Question: Which results are given for “MBP(83-99) (83E>a, 84N>K, 89F>L, and 91K>A) ([dA]KPVVHLFANIVTPRTP) [NBI-5788]”?
Answer: mean frequency of NBI-5788-reactive T cells after treatment ([1]; 5, 10 or 20 mg, four times weekly, seven MS patients): 35.8±12.8%; mean frequency of MBP-reactive T cells after treatment ([1]; after treatment with NBI-5788 (n=7)): 16.4±5.7%; change of frequency of MBP-reactive T cells following administration ([1]; human, in vivo): does not change markedly; change of NBI-5788-reactive T cells in peripheral blood after subcutaneous administration versus untreated MS patients ([1]; human, in vivo, sc): significant (χ^2=82.7, p<0.001) increase; also recorded: strongly induced; antigen-reactive T cells, Positive/total wells ([2]; Total of healthy donors): 0/96; antigen-reactive T cells, Positive/total wells ([2]; Total of untreated MS patients): 19/308; antigen-reactive T cells, % Positive ([2]; healthy donor HD-1): 0%; antigen-reactive T cells, Positive/total wells ([2]; healthy donor HD-1): 0/48; antigen-reactive T cells, % Positive ([2]; healthy donor HD-2): 0%; antigen-reactive T cells, Positive/total wells ([2]; healthy donor HD-2): 0/48; antigen-reactive T cells, % Positive [2, 3]: 6.8%; antigen-reactive T cells, Positive/total wells [2, 3]: 3/44; antigen-reactive T cells, % Positive [2, 4]: 2.3%; antigen-reactive T cells, Positive/total wells [2, 4]: 1/44; antigen-reactive T cells, % Positive [2, 5]: 6.8%; antigen-reactive T cells, Positive/total wells [2, 5]: 3/44; antigen-reactive T cells, % Positive [2, 6]: 11.4%; antigen-reactive T cells, Positive/total wells [2, 6]: 5/44; antigen-reactive T cells, % Positive [2, 7]: 9.1%; antigen-reactive T cells, Positive/total wells [2, 7]: 4/44; antigen-reactive T cells, % Positive [2, 8]: 4.5%; antigen-reactive T cells, Positive/total wells [2, 8]: 2/44; antigen-reactive T cells, % Positive [2, 9]: 2.3%; antigen-reactive T cells, Positive/total wells [2, 9]: 1/44; frequency of antigen-reactive T cells in healthy subjects ([2]; two healthy subjects, MBP-reactive cells detected in one of two): no NBI-5788-reactive T cells were detected; mean frequency of antigen-reactive T cells ([2]; untreated MS patients (n=7)): 6.2±1.3%
